Reference: the supplement of paper PMC8882468

Key:
Experiment in all cases: CTG-3D luminescence at 96 h relative to day-0 seeding control (ratio to day 0); higher = more growth / less cytotoxicity; PDxO 3D drug screen (set 2), 96 h, CTG-3D normalised to day-0 seeding control.
HCI-001 = system: HCI-001 (organoid from a triple-negative breast cancer xenograft)
HCI-002 = system: HCI-002 (organoid from a triple-negative breast cancer xenograft)
HCI-005.E2 = system: HCI-005.E2 (organoid from a breast cancer xenograft with a HER2-positive history)
HCI-008 = system: HCI-008 (organoid from a HER2-enriched breast cancer xenograft)
HCI-015 = system: HCI-015 (organoid from a triple-negative breast cancer xenograft)
HCI-025 = system: HCI-025 (organoid from a breast cancer xenograft)

CCOc1ccn(-c2ccc(F)cc2)c(=O)c1C(=O)Nc1ccc(Oc2ccnc(N)c2Cl)c(F)c1 [ASLAN002]
CTG-3D luminescence at 96 h
Details | 12.5 pM | 0.00025 µM | 0.005 µM | 0.1 µM | 1 µM | 10 µM | 100 µM | 625 fM
HCI-001, days in culture: 365 | 2.86 | 2.78 | 2.5 | 3.1 | 2.44 | 1.84 | 1.6 | 1.69
HCI-001, days in culture: 397 | 1.79 | 2.1 | 2.38 | 1.93 | 2.27 | 2.43 | 1.01 | 1.87
HCI-001, days in culture: 401 | 1.59 | 1.66 | 1.76 | 1.83 | 1.66 | 1.29 | 0.84 | 1.76
HCI-002, days in culture: 127 | 2.57 | 3.09 | 2.93 | 3.28 | 2.8 | 2.96 | 1.67 | 2.9
HCI-002, days in culture: 155 | 4.58 | 5.63 | 6.16 | 6.6 | 5.32 | 3.84 | 1.94 | 4.85
HCI-002, days in culture: 168 | 3.23 | 3.24 | 4.54 | 3.38 | 4.12 | 2.92 | 0.58 | 3.92
HCI-008, days in culture: 325 | 1.03 | 2.2 | 2.46 | 3.53 | 3.54 | 2.48 | 1.08 | 2.16
HCI-008, days in culture: 340 | 0.543 | 2.27 | 1.52 | 1.76 | 1.83 | – | 0.867 | 0.758
HCI-008, days in culture: 354 | 1.38 | 1.4 | 2.81 | 1.45 | 1.54 | 0.917 | 0.857 | 1.08
HCI-008, days in culture: 382 | 1.45 | 1.54 | 1.29 | 1.09 | 0.767 | 1.78 | 0.377 | 1.52
HCI-015, days in culture: 333 | 1.68 | 1.64 | 0.866 | 1.08 | 0.841 | 0.711 | 0.501 | 1.57
HCI-015, days in culture: 355 | 1.87 | 3.41 | 1.5 | 1.76 | 1.71 | 2.18 | 0.883 | 2.05
HCI-015, days in culture: 369 | 2.27 | 1.62 | 2.12 | 1.97 | 2.23 | 1.38 | 1.18 | 1.94
HCI-025, days in culture: 175 | 1.55 | 1.97 | 1.91 | 2.81 | 2.73 | 2.56 | 1.7 | 1.46
HCI-025, days in culture: 189 | 2.49 | 2.61 | 1.96 | 2.27 | 2.6 | 1.72 | 0.561 | 2.72
HCI-025, days in culture: 212 | 1.41 | 1.8 | 3.86 | 1.18 | 0.524 | 1.75 | 0.694 | 1.16
HCI-025, days in culture: 224 | 2.08 | 0.982 | 2.02 | 1.32 | 1.95 | 1.87 | 1.18 | 1.86

HCI-005.E2
Details | CTG-3D luminescence at 96 h
12.5 pM | 1.72
0.00025 µM | 2.16
0.005 µM | 2.37
0.1 µM | 2.74
1 µM | 2.59
10 µM | 2.35
100 µM | 1.45
625 fM | 2.25

C[C@@H](Nc1cc(F)cc(F)c1)c1cc(C(=O)N(C)C)cc2c(=O)cc(N3CCOCC3)oc12 [AZD-8186]
CTG-3D luminescence at 96 h
Details | 12.5 pM | 0.00025 µM | 0.005 µM | 0.1 µM | 1 µM | 10 µM | 100 µM | 625 fM
HCI-001, days in culture: 365 | 2.63 | 2.2 | 2.38 | 2.83 | 1.84 | 1.13 | 1.08 | 1.53
HCI-001, days in culture: 397 | 1.79 | 2.6 | 2.23 | 2.14 | 1.81 | 1.69 | 0.737 | 1.6
HCI-001, days in culture: 401 | 1.64 | 1.69 | 1.59 | 1.76 | 1.28 | 1.24 | 0.924 | 1.69
HCI-002, days in culture: 127 | 2.49 | 2.9 | 3.08 | 3.46 | 2.69 | 2.62 | 1.37 | 2.78
HCI-002, days in culture: 155 | 4.16 | 4.76 | 5.31 | 5.43 | 4.16 | 3.89 | 1.67 | 4.15
HCI-002, days in culture: 168 | 3.35 | 3.58 | 4.3 | 3.62 | 3.22 | 2.87 | 0.73 | 4.14
HCI-008, days in culture: 325 | 1.16 | 2.3 | 1.7 | 3.47 | 3.65 | 1.03 | 0.315 | 1.35
HCI-008, days in culture: 340 | 1.72 | 2.42 | 1.8 | 1.21 | 1.62 | – | 0.345 | 1.48
HCI-008, days in culture: 354 | 1.26 | 1.28 | 1.82 | 1.24 | 1.26 | 0.634 | 0.353 | 1.32
HCI-008, days in culture: 382 | 1.77 | 1.86 | 1.54 | 1.44 | 1.16 | 0.995 | 0.193 | 1.86
HCI-015, days in culture: 333 | 2.09 | 1.46 | 1.76 | 1.33 | 1.37 | 0.684 | 0.452 | 1.77
HCI-015, days in culture: 355 | 1.76 | 3.09 | 1.3 | 1.46 | 1.12 | 2.35 | 0.668 | 1.57
HCI-015, days in culture: 369 | 2.35 | 1.7 | 1.96 | 1.84 | 2.18 | 1.24 | 1.01 | 1.96
HCI-025, days in culture: 175 | 1.63 | 2.47 | 1.8 | 1.98 | 2.4 | 3.48 | 1.34 | 1.51
HCI-025, days in culture: 189 | 2.22 | 1.46 | 1.89 | 1.5 | 1.81 | 1.88 | 0.528 | 3.16
HCI-025, days in culture: 212 | 1.07 | 3.57 | 2.79 | 1.25 | 0.857 | 1.27 | 1.2 | 1.56
HCI-025, days in culture: 224 | 1.99 | 2.38 | 1.66 | 2 | 2.68 | 1.8 | 1.09 | 2.03

HCI-005.E2
Details | CTG-3D luminescence at 96 h
12.5 pM | 1.82
0.00025 µM | 2.18
0.005 µM | 2.26
0.1 µM | 2.54
1 µM | 2.24
10 µM | 1.51
100 µM | 0.592
625 fM | 1.97

Cc1c(CN2CCN(C(=O)[C@H](C)O)CC2)sc2c(N3CCOCC3)nc(-c3cnc(N)nc3)nc12 [apitolisib]
CTG-3D luminescence at 96 h
Details | 12.5 pM | 0.00025 µM | 0.005 µM | 0.1 µM | 1 µM | 10 µM | 100 µM | 625 fM
HCI-001, days in culture: 365 | 2.58 | 2.24 | 2.1 | 1.76 | 0.879 | 0.659 | 0.623 | 1.4
HCI-001, days in culture: 397 | 1.85 | 1.88 | 1.62 | 1.89 | 0.725 | 0.643 | 0.29 | 1.38
HCI-001, days in culture: 401 | 1.46 | 1.75 | 1.41 | 1.57 | 0.609 | 0.676 | 0.517 | 1.65
HCI-002, days in culture: 127 | 2.45 | 2.82 | 2.96 | 2.58 | 1.05 | 0.803 | 0.805 | 2.74
HCI-002, days in culture: 155 | 5.36 | 5.25 | 5.97 | 4.01 | 1.36 | 0.808 | 0.848 | 4.72
HCI-002, days in culture: 168 | 3.42 | 3.42 | 4.23 | 2.67 | 1.16 | 0.818 | 0.75 | 3.69
HCI-008, days in culture: 325 | 1.41 | 2 | 1.65 | 1.78 | 0.742 | 0.507 | 0.435 | 1.77
HCI-008, days in culture: 340 | 1.4 | 1.81 | 1.5 | 0.702 | 0.415 | – | 0.351 | 1.52
HCI-008, days in culture: 354 | 1.55 | 1.16 | 2.04 | 1.34 | 0.285 | 0.344 | 0.491 | 1.32
HCI-008, days in culture: 382 | 1.87 | 1.72 | 0.949 | 0.687 | 0.13 | 0.258 | 0.331 | 1.49
HCI-015, days in culture: 333 | 2.19 | 1.99 | 1.89 | 1.33 | 0.434 | 0.445 | 0.394 | 1.94
HCI-015, days in culture: 355 | 2.9 | 4.1 | 1.01 | 2.04 | 0.803 | 0.711 | 0.182 | 1.38
HCI-015, days in culture: 369 | 2.06 | 1.76 | 2.05 | 1.61 | 0.917 | 0.622 | 0.691 | 1.69
HCI-025, days in culture: 175 | 1.49 | 1.72 | 1.53 | 1.89 | 0.73 | 0.467 | 0.419 | 1.16
HCI-025, days in culture: 189 | 1.77 | 1.49 | 1.66 | 1.41 | 0.518 | 0.179 | 0.121 | 2.67
HCI-025, days in culture: 212 | 2.2 | 3.51 | 2.34 | 0.777 | 0.534 | 0.218 | 0.139 | 0.788
HCI-025, days in culture: 224 | 2.45 | 2.02 | 2.09 | 1.35 | 0.679 | 0.351 | 0.267 | 2

HCI-005.E2
Details | CTG-3D luminescence at 96 h
12.5 pM | 1.87
0.00025 µM | 2.22
0.005 µM | 2.35
0.1 µM | 1.75
1 µM | 0.429
10 µM | 0.481
100 µM | 0.444
625 fM | 2.21
